Reference: patent US10405750B2, “Nonradiative voltage-sensitive dye for imaging neuronal action potential” (Washington University, priority 2014, dated 2019)

Key:
[1] = commercially available dyes to be tested; cited from earlier work

Structure (SMILES)	Abs.: peak absorption wavelength [1] [nm]	other results
FC(F)OC(Cl)C(F)(F)F (stereo not shown) [isoflurane]		PA signal (DPA-stained cortex) after prolonged isoflurane (mouse brains; 5% isoflurane, prolonged exposure (30 minutes), after 4-AP): suppression of photoacoustic signal change
CCCCN1C(=O)/C(=C/C=C/C=C2/C=CN(CCCCS(=O)(=O)[O-])c3ccccc32)SC1=S.[Na+] [NK 2761]	716	
CCCCN(CCCC)c1ccc(/C=C/C=C/c2cc[n+](CCCCS(=O)(=O)[O-])cc2)cc1 [RH 160]	530	
Nc1ccncc1 [4-AP, 4-am inopyridine]		PA waveforms (DPA-stained cortex) after 4-AP (mouse brains; mouse, in vivo): large-amplitude high-frequency waveforms consistent with epileptiform discharges; behavioural effect in mice (mouse brains; mouse, in vivo): signs of convulsions
CCCCCCCCCCCCN(CCCCCCCCCCCC)c1ccc2cc(/C=C/c3cc[n+](CCC[N+](C)(C)C)cc3)ccc2c1.[Br-].[Br-] [Di-12-ANEPPQ]	519	
CCN(CC)c1ccc(/C=C/C=C/c2cc[n+](CC(O)C[N+](C)(C)CCO)cc2)cc1.[Br-].[Br-] (stereo not shown) [RH 795]	530	
CCN(CC)c1ccc2cc(/C=C/c3cc[n+](CC[N+](C)(C)C)cc3)ccc2c1.[Br-].[Br-] [Di-2-ANEPEQ]	517	
CCN(CC)c1ccc(/C=C/C=C/c2cc[n+](CCC[N+](CC)(CC)CC)cc2)cc1.[Br-].[Br-] [RH 414]	532	
CCCCN(CCCC)c1ccc(/C=C/C=C/C=C/c2cc[n+](CCCCS(=O)(=O)[O-])cc2)cc1 [RH 237]	528	
